Measurements published in paper PMC9982066, “Inhibition of Ehrlichia chaffeensis infection by cell-permeable macrocyclic peptides that bind type IV secretion effector Etf-1” (PNAS Nexus, 2023).
Starred links: 1 amine or outer side, 2 acyl side, 3 side chain; linkers in the order of their positions; H or OH if unused. Positions of bridges follow the written chain, without caps; N, C: chain ends. Non-standard residues stand in square brackets, D forms with d. Residues, ends and D or L forms follow the SMILES beside them. Trimesoyl = O=C(c1cc(C(=O)[*:2])cc(C(=O)[*:3])c1)[*:1]; Phe(3-Cl) = N[C@@H](Cc1cccc(Cl)c1)C(=O)O; Phe(4-Cl) = N[C@@H](Cc1ccc(Cl)cc1)C(=O)O; Phe(4-F) = N[C@@H](Cc1ccc(F)cc1)C(=O)O; d2Nal = N[C@H](Cc1ccc2ccccc2c1)C(=O)O; βAsp = O=C(O)[C@H](CC(=O)[*:2])N[*:1]; Nle = CCCC[C@H](N)C(=O)O; Orn = NCCC[C@H](N)C(=O)O; Dap = NC[C@H](N)C(=O)O

What was measured:
E. chaffeensis [1] = assay: E. chaffeensis infection of THP-1 cells, qPCR of 16S rRNA gene normalized to human actin; assay type: cell-based, Ehrlichia chaffeensis
Description: Therefore, we investigated whether these Etf-1-binding peptides can prevent the proliferation of E. chaffeensis inside host cells. THP-1 cells were infected with E. chaffeensis, then treated with the peptides at 30 min post infection (pi) for 2 days. Intracellular infection and proliferation of E. chaffeensis inside host THP-1 cells were assessed using quantitative PCR (qPCR) analysis based on E. chaffeensis 16S rRNA gene normalized by human actin (ACT) gene.
Fig. 5. Effects of Etf-1-binding peptides on E. chaffeensis infection of THP-1 cells. Ehrlichia chaffeensis-infected THP-1 cells at […] were incubated with 10 μM of Etf-1-binding macrocyclic peptide or DMSO control for 2 days.
No antibiotic was used throughout the study.
DNA was extracted from each sample using Qiagen blood mini kit according to the manufacturer's instructions (Qiagen, Valencia, CA, USA), and qPCR analysis was performed in an MX3000P qPCR instrument (Stratagene, San Diego, CA, USA) using SYBR Green Real-Time PCR Master Mix (Thermo Fisher Scientific) according to the manufacturer's instructions. Five-fold serial dilutions of the control group were used to generate a standard curve to calculate the relative copy numbers of E. chaffeensis 16S rRNA normalized against human actin genes using the MX3000P software from Stratagene as described previously ([18], [44]).

E. chaffeensis [2] = assay: morphological examination of E. chaffeensis infection of THP-1 cells by Diff-Quik staining; details: THP-1 cells, Fig. S4 (with Figs. 5, S3)
Description: Ehrlichia chaffeensis Arkansas strain ([43]) was cultured in THP-1 cells (ATCC, Manassas, VA, USA) in RPMI 1640 medium (Corning, Manassas, VA, USA) supplemented with 8% FBS (Atlanta Biologicals, Flowery Branch, GA, USA) and 4 mM L-glutamine (at 37°C under 5% CO2 in a humidified atmosphere. THP-1 cells were seeded at 1 × 10^5 cells/well (in 1.5-mL RPMI 1640 culture medium with 8% FBS, 4 mM L-Gln) in a 12-well plate, then infected with host cell-free E. chaffeensis at an MOI (multiplicity of infection, or numbers of bacteria per cell) of ∼30. Cells were cultured in a humidified incubator with 5% CO2 and 95% air. No antibiotic was used throughout the study. At 0.5 h post infection (pi), cells were incubated with 1–10 μM of peptides or with an equal volume of DMSO (solvent control, 2 μL per mL medium). At 2 days pi, cells were washed with 1 mL of PBS, and two drops of cells were cytospun onto glass slides by a Shandon Cytospin 4 cytocentrifuge (Thermo Fisher Scientific), then fixed and stained with HEMA 3 staining solutions (Thermo Fisher Scientific). Ehrlichia infection was observed and images were captured by a SPOT RT digital camera (Diagnostic Instruments, Sterling Heights, MI, USA) coupled to a Nikon Eclipse E400 microscope (Nikon, Melville, NY, USA).

Etf-1 = Etf-1 (Ehrlichia chaffeensis, UniProt Q2GG12); assay: FP assay of Etf-1 binding with FAM-labeled peptides
Etf-1, sequence (Q2GG12 entry or part of it): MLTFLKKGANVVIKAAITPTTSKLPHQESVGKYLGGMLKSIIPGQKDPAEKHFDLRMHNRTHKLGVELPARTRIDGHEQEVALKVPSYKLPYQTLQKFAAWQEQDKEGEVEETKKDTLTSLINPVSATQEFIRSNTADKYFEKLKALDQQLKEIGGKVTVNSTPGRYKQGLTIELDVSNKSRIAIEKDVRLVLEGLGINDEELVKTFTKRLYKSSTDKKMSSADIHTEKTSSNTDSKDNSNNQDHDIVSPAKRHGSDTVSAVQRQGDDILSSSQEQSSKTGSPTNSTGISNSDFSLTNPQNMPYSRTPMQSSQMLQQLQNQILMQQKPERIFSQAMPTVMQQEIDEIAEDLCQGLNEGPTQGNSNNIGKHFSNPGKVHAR
Description: The peptides were labeled at their C-terminus with carboxyfluorescein (FAM) through a β-Ala-β-Ala-Lys linker and evaluated for binding to Etf-1 by using a fluorescence polarization (FP) assay. […] This outcome is not unexpected, as screening OBOC libraries is often complicated by false positives, due to the presence of high ligand densities on library beads ([28]).
Fig. 2. Determination of binding affinity of Etf-1-binding peptides by FP assay. […] FAM-labeled peptide (50 nM) was incubated with serially diluted Etf-1 (starting from 25–30 μM in PBS, pH 7.4, supplemented with 5 mM DTT and 0.01% Triton X-100) for 1 h at RT. FP values were measured on a Tecan Infinite M1000 Pro plate reader. Titration curves (n ≥ 3) were fitted using GraphPad Prism and analyzed with TraceDrawer to calculate dissociation constants (KD). […] Data were analyzed using GraphPad Prism and fitted to a four-parameter variable slope equation to determine IC50 values.
Etf-1 and macrocyclic peptides were serially diluted in PBS supplemented with 5 mM DTT and 0.01% Triton X-100 (v/v). FAM-labeled peptides (50 nM) were prepared from a 10-μM DMSO stock and incubated with serially diluted Etf-1 for 1 h at room temperature (RT). Twenty microliters of the solutions were transferred to a black 384-well plate (Greiner Bio-One) and FP values were measured on a Tecan Infinite M1000 Pro plate reader with excitation and emission wavelengths at 470 and 535 nm, respectively. Titration curves (n ≥ 3) were fitted using GraphPad Prism v8.0 (GraphPad, La Jolla, CA, USA), and analyzed with TraceDrawer software v1.8 (Ridgeview Instruments AB, Uppsala, Sweden) to calculate the dissociation constant (KD, in nM).

Row | SMILES | Kd (Etf-1) | further results
1 | CCCC[C@@H]1NC(=O)[C@H](CC(=O)O)NC(=O)[C@@H](Cc2ccccc2)NC(=O)[C@H](Cc2ccc(O)cc2)NC(=O)c2cc3cc(c2)C(=O)NC[C@H](NC(=O)[C@@H](CC(C)C)NC(=O)[C@@H](CC(N)=O)NC1=O)C(=O)N[C@@H](Cc1ccc(Cl)cc1)C(=O)N[C@H](Cc1ccc2ccccc2c1)C(=O)N[C@H](CCCNC(=N)N)C(=O)N[C@@H](CCCNC(=N)N)C(=O)N[C@H](CCCNC(=N)N)C(=O)N[C@@H](CCCNC(=N)N)C(=O)N[C@H](C(N)=O)CNC3=O [Peptide B7-133-3, TMA-Tyr-phe-Asp-Nle-asn-leu-Dap-4-ClPhe-nal-arg-Arg-arg-Arg-Dap] (Y[dF]D[Nle][dN][dL][Dap][Phe(4-Cl)][d2Nal][dR]R[dR]R[Dap]-NH2; linker N-7-14 via Trimesoyl) |  | inhibition of E. chaffeensis infection (E. chaffeensis [1]; 10 μM, 2 days, vs DMSO control): significantly inhibited; dose dependence of inhibition of E. chaffeensis infection (E. chaffeensis [1]; 1, 5, and 10 μM): dose-dependent manner; inhibition of E. chaffeensis infection compared with peptide B7 (or B7-16) (E. chaffeensis [1]; THP-1 cells): significantly more potent inhibition; E. chaffeensis infection (numbers and sizes of morulae) (E. chaffeensis [2]): significantly inhibited
2 | CC(C)C[C@H]1NC(=O)[C@H](CO)NC(=O)[C@H]2CCCN2C(=O)[C@H](CCC(N)=O)NC(=O)[C@H](Cc2c[nH]cn2)NC(=O)[C@H](Cc2ccc(O)cc2)NC(=O)c2cc3cc(c2)C(=O)NC[C@H](NC1=O)C(=O)N[C@@H](Cc1cccc(Cl)c1)C(=O)N[C@H](Cc1ccc2ccccc2c1)C(=O)N[C@H](CCCNC(=N)N)C(=O)N[C@@H](CCCNC(=N)N)C(=O)N[C@H](CCCNC(=N)N)C(=O)N[C@@H](CCCNC(=N)N)C(=O)N[C@H](C(N)=O)CNC3=O [Peptide B7-17, TMA-Tyr-His-Gln-pro-Ser-leu-Dap-3-ClPhe-nal-arg-Arg-arg-Arg-Dap] (YHQ[dP]S[dL][Dap][Phe(3-Cl)][d2Nal][dR]R[dR]R[Dap]-NH2; linker N-7-14 via Trimesoyl) | 3.4 ± 0.4 µM | 
3 | CC(C)C[C@H]1NC(=O)[C@H](CO)NC(=O)[C@H]2CCCN2C(=O)[C@H](CCC(N)=O)NC(=O)[C@H](Cc2c[nH]cn2)NC(=O)[C@H](Cc2ccc(O)cc2)NC(=O)c2cc3cc(c2)C(=O)NC[C@H](NC1=O)C(=O)N[C@@H](Cc1ccccc1)C(=O)N[C@H](Cc1ccc2ccccc2c1)C(=O)N[C@H](C)C(=O)N[C@@H](CCCNC(=N)N)C(=O)N[C@H](CCCNC(=N)N)C(=O)N[C@@H](CCCNC(=N)N)C(=O)N[C@H](C(N)=O)CNC3=O [Peptide B7-9, TMA-Tyr-His-Gln-pro-Ser-leu-Dap-Phe-nal-ala-Arg-arg-Arg-Dap] (YHQ[dP]S[dL][Dap]F[d2Nal][dA]R[dR]R[Dap]-NH2; linker N-7-14 via Trimesoyl) | 30 ± 7 µM | 
4 | CC(C)C[C@H]1NC(=O)[C@H](CO)NC(=O)[C@@H](C)NC(=O)[C@H](CCC(N)=O)NC(=O)[C@H](Cc2c[nH]cn2)NC(=O)[C@H](Cc2ccc(O)cc2)NC(=O)c2cc3cc(c2)C(=O)NC[C@H](NC1=O)C(=O)N[C@@H](Cc1ccccc1)C(=O)N[C@H](Cc1ccc2ccccc2c1)C(=O)N[C@H](CCCNC(=N)N)C(=O)N[C@@H](CCCNC(=N)N)C(=O)N[C@H](CCCNC(=N)N)C(=O)N[C@@H](CCCNC(=N)N)C(=O)N[C@H](C(N)=O)CNC3=O [Peptide B7-3, TMA-Tyr-His-Gln-ala-Ser-leu-Dap-Phe-nal-arg-Arg-arg-Arg-Dap] (YHQ[dA]S[dL][Dap]F[d2Nal][dR]R[dR]R[Dap]-NH2; linker N-7-14 via Trimesoyl) | 5.8 ± 0.5 µM | 
5 | CCCC[C@@H]1NC(=O)[C@H](Cc2ccc(O)cc2)NC(=O)c2cc3cc(c2)C(=O)NC[C@H](NC(=O)[C@@H](CC(C)C)NC(=O)CNC(=O)[C@H](CCC(N)=O)NC(=O)[C@@H](CCC(=O)O)NC1=O)C(=O)N[C@@H](Cc1ccc(Cl)cc1)C(=O)N[C@H](Cc1ccc2ccccc2c1)C(=O)N[C@H](CCCNC(=N)N)C(=O)N[C@@H](CCCNC(=N)N)C(=O)N[C@H](CCCNC(=N)N)C(=O)N[C@@H](CCCNC(=N)N)C(=O)N[C@H](C(N)=O)CNC3=O [Peptide B7-133-4, TMA-Tyr-Nle-glu-Gln-Gly-leu-Dap-4-ClPhe-nal-arg-Arg-arg-Arg-Dap] (Y[Nle][dE]QG[dL][Dap][Phe(4-Cl)][d2Nal][dR]R[dR]R[Dap]-NH2; linker N-7-14 via Trimesoyl) | 6.5 ± 0.1 µM | 
6 | CC(C)C[C@H]1NC(=O)[C@H](Cc2ccc(F)cc2)NC(=O)[C@@H](CCC(=O)O)NC(=O)C[C@@H](C(=O)O)NC(=O)[C@H](CCCN)NC(=O)[C@H](CC(=O)O)NC(=O)[C@H](Cc2ccc(O)cc2)NC(=O)c2cc3cc(c2)C(=O)NC[C@H](NC1=O)C(=O)N[C@@H](Cc1ccc(Cl)cc1)C(=O)N[C@H](Cc1ccc2ccccc2c1)C(=O)N[C@H](CCCNC(=N)N)C(=O)N[C@@H](CCCNC(=N)N)C(=O)N[C@H](CCCNC(=N)N)C(=O)N[C@@H](CCCNC(=N)N)C(=O)N[C@H](C(N)=O)CNC3=O [Peptide B7-95-1, TMA-Tyr-Asp-Orn-isoAsp-glu-Fpa-leu-Dap-4-ClPhe-nal-arg-Arg-arg-Arg-Dap] (YD[Orn][βAsp][dE][Phe(4-F)][dL][Dap][Phe(4-Cl)][d2Nal][dR]R[dR]R[Dap]-NH2; linker N-8-15 via Trimesoyl) | 3.2 µM | 
7 | CC(C)C[C@H]1NC(=O)[C@H](CO)NC(=O)[C@H]2CCCN2C(=O)[C@H](CCC(N)=O)NC(=O)[C@H](Cc2c[nH]cn2)NC(=O)[C@H](Cc2ccc(O)cc2)NC(=O)c2cc3cc(c2)C(=O)NC[C@H](NC1=O)C(=O)N[C@@H](Cc1ccccc1)C(=O)N[C@H](Cc1ccc2ccccc2c1)C(=O)N[C@H](CCCNC(=N)N)C(=O)N[C@@H](C)C(=O)N[C@H](CCCNC(=N)N)C(=O)N[C@@H](CCCNC(=N)N)C(=O)N[C@H](C(N)=O)CNC3=O [Peptide B7-10, TMA-Tyr-His-Gln-pro-Ser-leu-Dap-Phe-nal-arg-Ala-arg-Arg-Dap] (YHQ[dP]S[dL][Dap]F[d2Nal][dR]A[dR]R[Dap]-NH2; linker N-7-14 via Trimesoyl) | 30 ± 3 µM | 
